From ChEMBL document CHEMBL1201862, “PubChem BioAssay data set” (2004)
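96-well plates; 48 h exposure; 5 concentrations. Endpoints by linear interpolation between flanking doses. Not reached: highest tested concentration assigned. GI50: concentration for 50% inhibition of growth.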 The source made the active and inactive calls. Rule as the data show it: active = GI50 up to about 1.1 µM and inactive = higher.

Assays:
Experiment in all cases: growth of human tumour cells (NCI), 48 h
K562 = test system: K562
MCF7 = test system: MCF7
SK-OV-3 = test system: SK-OV-3
UACC-257 = test system: UACC-257
UACC-62 = test system: UACC-62
ACHN = test system: ACHN
M14 = test system: M14
HL-60 = test system: HL-60
RPMI-8226 = test system: RPMI-8226
OVCAR-8 = test system: OVCAR-8
SN12C = test system: SN12C
OVCAR-3 = test system: OVCAR-3
HOP-92 = test system: HOP-92
NCI-H460 = test system: NCI-H460
A498 = test system: A498
MDA-MB-435 = test system: MDA-MB-435
DU-145 = test system: DU-145
HT-29 = test system: HT-29
SNB-19 = test system: SNB-19
HOP-62 = test system: HOP-62

Measured: GI50

CCOC(=O)c1c(CN2CCNCC2)nc2ccc(Cl)cc2c1-c1ccccc1
inactive: K562 2.14 µM | MCF7 11 µM | SK-OV-3 6.93 µM | UACC-257 1.81 µM | UACC-62 1.77 µM | ACHN 5.45 µM | M14 1.81 µM | HL-60 1.98 µM | RPMI-8226 2.19 µM | OVCAR-8 4.21 µM | SN12C 4.92 µM | OVCAR-3 6.95 µM | HOP-92 1.17 µM | NCI-H460 2.48 µM | A498 7.26 µM | MDA-MB-435 2.31 µM | DU-145 16.2 µM | HT-29 1.79 µM | SNB-19 12.8 µM | HOP-62 6.95 µM

CS(=O)(=O)OC1CN2CCC1CC2 (stereo not given)
inactive: K562 > 100 µM | MCF7 > 100 µM | SK-OV-3 > 100 µM | UACC-257 > 100 µM | UACC-62 > 100 µM | ACHN > 100 µM | M14 > 100 µM | HL-60 > 100 µM | RPMI-8226 > 100 µM | OVCAR-8 > 100 µM | SN12C > 100 µM | OVCAR-3 > 100 µM | HOP-92 > 100 µM | NCI-H460 > 100 µM | A498 > 100 µM | MDA-MB-435 > 100 µM | DU-145 > 100 µM | HT-29 > 100 µM | SNB-19 > 100 µM | HOP-62 > 100 µM

NCCCc1ccc2oc3ccccc3c2c1
inactive: K562 24.2 µM | MCF7 18.7 µM | SK-OV-3 17.1 µM | UACC-257 17.9 µM | UACC-62 17.7 µM | ACHN 17.5 µM | M14 15.8 µM | HL-60 11.4 µM | RPMI-8226 26.4 µM | OVCAR-8 22.7 µM | SN12C 17 µM | OVCAR-3 17.2 µM | HOP-92 20.4 µM | NCI-H460 17 µM | A498 16.1 µM | MDA-MB-435 15.7 µM | DU-145 16.9 µM | HT-29 12.6 µM | SNB-19 16 µM | HOP-62 17.6 µM

COc1c(-c2ccc(O)c(O)c2)oc2c(O)c(O)cc(O)c2c1=O
inactive: K562 20.8 µM | MCF7 28.2 µM | SK-OV-3 85.9 µM | UACC-257 > 100 µM | UACC-62 51.1 µM | ACHN > 100 µM | M14 > 10 µM | HL-60 > 10 µM | RPMI-8226 31.8 µM | OVCAR-8 > 100 µM | SN12C 16.9 µM | OVCAR-3 56.8 µM | HOP-92 > 100 µM | NCI-H460 55.6 µM | A498 > 100 µM | MDA-MB-435 31 µM | DU-145 > 100 µM | HT-29 20 µM | SNB-19 > 100 µM | HOP-62 26.7 µM

COC(=O)C1CCC(=O)N1C(c1cc(OC)c(OC)c(OC)c1)c1cc(OC)c(OC)c(OC)c1 (stereo not given)
inactive: K562 > 100 µM | MCF7 > 100 µM | SK-OV-3 > 100 µM | UACC-257 > 100 µM | UACC-62 > 100 µM | ACHN > 100 µM | M14 > 100 µM | HL-60 > 100 µM | RPMI-8226 > 100 µM | OVCAR-8 > 100 µM | SN12C > 100 µM | OVCAR-3 > 100 µM | HOP-92 > 100 µM | NCI-H460 > 100 µM | A498 > 100 µM | MDA-MB-435 > 100 µM | DU-145 > 100 µM | HT-29 > 100 µM | SNB-19 > 100 µM | HOP-62 > 100 µM
